Assays:
Hep3B cells [1] = assay: real-time PCR of hedgehog target genes Gli1 and PTCH1 after drug treatment; assay type: cell-based; settings: 2 μM
Method: (§1) HCC cell cell lines (Hep3B, HepG2, HCC36, PLC/PRF/5 (identified as PLC) and Huh 7) were provided by Chiaho Shih, Tien Ko and Kui Li at UTMB. All cells were cultured in Dulbeco-modified essential medium (DMEM) with 10% FBS and antibiotics. […] In addition, the specific inhibition of hedgehog signaling in HCC cells was achieved by addition of Shh neutralizing antibodies (1 μg/ml in 0.5% FBS DMEM, Car# SC-9024, Santa Cruz Biotechnology, Santa Cruz, Calif.). […] Transient transfection of Gli1 in HCC cells was performed using LipofectAmine according to the manufacturer's recommendation (Plasmid-LipofectAmine=1:2.5). Cells with ectopic expression of Gli1 were subjected to drug treatment and to TUNEL (terminal deoxynucleotidyl transferase-mediated dUTP nick end labeling) assay.

Hep2G cells = assay: TUNNEL (TUNEL) apoptosis assay; assay type: cell-based; settings: 2 μM
Method: (§2) TUNEL assay was performed using a kit from Roche Biochemicals according to published procedure (Athar et al., 2004). Briefly, cells were fixed with 4% paraformaldehyde at room temperature for 1 h and permeated with 0.1% Triton X-100, 0.1% sodium citrate (freshly prepared) on ice for 2 min. After washing with PBS, each sample was incubated with 50 μl of TUNEL reaction mixture at 37° C. for 30 min. TUNEL labeled solution (without enzyme) was used as a negative control. TUNEL positive cells were counted under a fluorescent microscope. The counting was repeated three times and the percentage from each counting was calculated.

Hep3B cells [2] = assay: TUNNEL (TUNEL) apoptosis assay; assay type: cell-based; settings: 2 μM
Method: as §2

Huh7 cells [3] = assay: MTT cell growth assay; assay type: cell-based; settings: tomatidine, negative control
Method: as §1
(§3) For cell viability analysis, two methods were used: trypan Blue analysis and MTT assay. Trypan Blue analysis was performed to manufacturer's instruction (Invitrogen, CA). The percentage of trypan blue positive cell (dead cells) were calculated under a microscope and triplicates of samples for each treatment were used in a 96-well format. Twenty microliters of MTT (10 mg/ml in PBS) was added to each well (containing 100 μl cultured medium, 0.5% FBS DMEM). […] Thirty minutes later, absorbance was measured at 570 nm using a microplate reader from Molecular Devices Co., Sunnyvale, Calif. […]

Hep3B cells [4] = assay: Trypan blue cell death assay; assay type: cell-based; settings: KAAD-cyclopamine 2 μM
Method: as §1, §3

[5] = test system: liver cancer cells with activated hedgehog signaling pathway; assay: induction of apoptosis in liver cancer cells; assay type: cell-based; settings: 2 μM KAAD-cyclopamine
Method: as §2

Huh7 cells [6] = assay: BrdU incorporation; assay type: cell-based
[7] = test system: Huh 7 cells that transiently expressed Gli1; assay: TUNEL assay in cells with ectopic expression of Gli1; assay type: cell-based; settings: Huh 7 cells transiently expressing Gli1 under CMV promoter
Method: as §2

[8] = test system: cells regardless of hedgehog signaling; assay: toxicity of KAAD-cyclopamine to cells regardless of hedgehog signaling; assay type: cell-based; settings: 5 or 10 μM
GI cancer cells = GI cancer cells (Ma et al., 2006); cited from earlier work
Huh7-2-3(+) cells = assay: real-time PCR of Gli1 in HCV replicating cells after interferon; assay type: cell-based; settings: Huh7-2-3(+) cells treated with interferon (giving Huh7-2-3(−) cells)
Excerpt: The activation of hedgehog signaling pathway in hepatocellular carcinoma infected with virus or bacteria was also examined. Huh7 cells are hepatocellular carcinoma cells that can support HCV replication (Scholle F. et al., 2004. Huh7-2-3(+) are Huh7 cells that allow active HCV replication and Huh7-2-3(−) cells are derived from Huh7-2-3(+) cells following interferon treatment for two weeks to prevent virus replication. SIIA are gastric cancer cells with hedgehog signaling activation and used as control.

Shh promoter = assay: sonic hedgehog promoter activity (luciferase reporter) in HCV expressing cells; assay type: cell-based; settings: Huh7 cells with stable expression of HCV; HCV RNA replication inhibited by interferon treatment
Excerpt: Furthermore, the present invention also examined whether HCV RNA replication was a major trigger for activated hedgehog signaling in Hepatocellular carcinoma. In order to do so, cell lines with or without HCV RNA replication for the sonic hedgehog (shh) promoter activity were compared. The promoter activity of SHH was higher in Huh7 cells than in HepG2 cells. […] However, the shh promoter activity was reduced when the HCV RNA replication was inhibited by interferon treatment as shown in 2-3c (FIG. 7B).

Row | Compound | levels of Gli1 and PTCH1 transcripts (Hep3B cells [1]) | apoptosis (TUNNEL assay) (Hep2G cells) | apoptosis (TUNNEL assay) (Hep3B cells [2]) | cell growth (MTT assay) (Huh7 cells [3]) | level of cell death (Trypan blue) (Hep3B cells [4]) | time within which apoptosis is induced [5] | BrdU incorporation (Huh7 cells [6]) | TUNEL / sensitivity to treatment [7] | toxicity to cells [8] | concentration that could cause non-specific toxicity (GI cancer cells) | expression of Gli1 (Huh7-2-3(+) cells) | shh promoter activity (Shh promoter)
1 | C[C@H]1CC[C@]2(NC1)O[C@H]1C[C@H]3[C@@H]4CC[C@H]5C[C@@H](O)CC[C@]5(C)[C@H]4CC[C@]3(C)[C@H]1[C@@H]2C [tomatidine] | little discemible effect | did not induce apoptosis | did not induce apoptosis | did not affect cell growth | – | – | – | – | – | – | – | –
2 | KAAD-cyclopamine | – | no detectable apoptosis | apoptosis | – | increased level of cell death | ≤ 12 h | reduced | negative for TUNEL | quite toxic | 10 µM | – | –
3 | interferon | – | – | – | – | – | – | – | – | – | – | reduced | reduced

— patent US20070059311A1, “Regulation of the hedgehog signaling pathway and uses thereof” (priority 2005, published 2007)
